Data reported in ChEMBL document CHEMBL4699456 (Bioorg Med Chem Lett, 2020).

How the values were obtained:
Type in all cases: ADME, organism-based
[1] = Oral bioavailability in BALB/c mouse at 10 mg/kg; details: in vivo
[2] = Cmax in BALB/c mouse at 10 mg/kg, po; parameters: route oral, dose 10 mg/kg; details: in vivo
[3] = Volume of distribution at steady state in BALB/c mouse at 2 mg/kg, iv; details: in vivo, read-out: Vdss
[4] = AUC in BALB/c mouse at 10 mg/kg, po; parameters: dose 10 mg/kg; details: in vivo

SMILES | bioavailability [1] | Cmax [2] | Vd [3] | AUC [4]
O=C(O)[C@H]1CC[C@H](C(=O)N2CC[C@](c3ccc(C(OCc4c(F)cccc4F)(C(F)(F)F)C(F)(F)F)cc3)(S(=O)(=O)c3ccc(F)cc3)C2)CC1 | 56% | 2.1 µM | 1.3 L/kg | 11.3 µM·h
O=C(O)[C@H]1CC[C@H](C(=O)N2CC[C@](c3ccc(C(OCC4CCCCC4)(C(F)(F)F)C(F)(F)F)cc3)(S(=O)(=O)c3ccc(F)cc3)C2)CC1 | 101% | 4.9 µM | 1.7 L/kg | 36.8 µM·h
